Like-named read-outs stand apart in the source and are kept apart here.
Experiments:
[1] = Stability of the four compounds in plasma samples (QC samples); conditions: n = 5
Experimental: In a 1.5 mL EP tube, 100 μL of plasma sample was mixed with 10 µL 1% formic acid–water, 10 μL IS (0.2011 μg/mL), and 400 μL acetonitrile. The mixture was then vortexed for 5 min, followed by sonication for 10 min at 40 kHz and centrifugation at 14,000 rpm for 10 min. The supernatant obtained was transferred to another tube and evaporated to dryness under a nitrogen vacuum at 37°C. The residue obtained was reconstituted with 150 μL of the initial mobile phase, and the centrifugation process was repeated. The supernatant thus obtained was then used for further analysis.
Similarly, QC samples of three concentrations (low, medium, and high) were prepared.
The specificity of the method was evaluated by comparing the retention times of analytes and IS in the blank matrix, blank matrix spiked with the four analytes and IS, and the samples after oral administration of CA extract. Calibration curves were constructed by comparing the ratio of peak areas of the four analytes to that of IS versus the concentration of the four analytes. Calibration curves were fitted via linear weighted (1/X ^ 2 ) least–squares regression. The intra–and inter–day precision and accuracy were estimated by analyzing QC samples at different concentrations on the same day and three consecutive validation days, respectively. The extraction recovery was evaluated by determining the peak area of analytes in QC samples compared with that in extracted matrix samples. The relative standard deviation of the extraction recovery of analytes at each level was retained at ≤20.0%. The following parameters of stability were assessed: short–term stability (24 h at room temperature), processed sample stability (24 h at 4°C), freeze–thaw stability (3 cycles), and auto–sampler stability (6 h at room temperature). QC samples of different concentrations were used for stability analysis.

[2] = PK study: plasma pharmacokinetics after oral administration of CA extract in normal and FD rats (UPLC-MS/MS); assay type: in vivo; conditions: Sprague-Dawley, rat, oral CA extract (0.10 g/mL solution, 10 mL/kg); for AUC(0-inf) / AUC(0-t) / CL/F / Cmax / half-life: n = 6; for Tmax: n = 6, read-out: Tmax; for Vd/F: n = 6, read-out: Vz/F
Experimental: For PK experiments, an appropriate amount of the CA extract was weighed to prepare a 0.10 g/mL solution using physiological saline. Briefly, 12 SD rats were randomly assigned to normal and FD groups and were orally administered the prepared CA sample (10 mL/kg body weight). For assessment, 0.3 mL of blood was collected into heparinized tubes via the caudal vein before dosing and at 2, 5, 10, 15, 20, 30, and 45 min, and 1, 2, 4, 8, 12, 24, and 48 h after administration. Blood samples were then immediately centrifuged at 4,500 rpm for 15 min, and the obtained plasma samples were stored at −20°C until determination.
The PK parameters were analyzed using the non–compartment analysis using the WinNonLin 8.2 software (Phoenix, United States). All the data were expressed as mean ± standard deviation (SD). The normal and FD groups were compared using independent samples t–test in SPSS 22.0. Results with p values < 0.05 were considered statistically significant.

[3] = Stability of the four compounds in tissue homogenate samples (QC samples); conditions: mean ± s, n = 5
Experimental: (§1) Additionally, stomach and small intestinal tissues were diluted three times to obtain a tissue homogenate. Then, 300 μL of this tissue homogenate was mixed with 30 μL 1% formic acid-water, 20 μL IS, and 1.2 mL acetonitrile. The mixture was then vortexed for 5 min, sonicated for 10 min, and then stored at −20°C for 30 min. Subsequently, the mixture was centrifuged at 14,000 rpm for 10 min. The supernatant obtained was then transferred to another tube and evaporated to dryness at 37°C under nitrogen. The dried residue was reconstituted with 200 μL of the 50% methanol–water, and the centrifugation process was repeated. The obtained supernatant was then used for further analysis.
The appropriate amount of the reference substance was accurately weighed and dissolved in an appropriate amount of methanol to obtain stock solutions. The concentrations of the resulting stock solution were 0.9996 mg/mL for baishouwu benzophenone, 0.9518 mg/mL for deacylmetaplexigenin, 1.3660 mg/mL for qingyangshengenin, and 0.9898 mg/mL for syringic acid. Accurate volumes of each stock solution were mixed to obtain working solution, which was then serially diluted with methanol to provide standard working solutions. Similarly, QC samples of three concentrations (low, medium, and high) were prepared. All solutions were stored at −20°C for later use.
The following parameters of stability were assessed: short–term stability (24 h at room temperature), processed sample stability (24 h at 4°C), freeze–thaw stability (3 cycles), and auto–sampler stability (6 h at room temperature). QC samples of different concentrations were used for stability analysis.

[4] = Tissue distribution study after oral administration of CA extract in normal and FD rats
Experimental: UPLC–MS/MS analysis was conducted using the ACQUITY UPLC system (Waters Corp., Milford, MA, United States) equipped with a Xevo–TQ mass spectrometer (Waters Corp., Milford, MA, United States) with an electrospray ionization (ESI) interface and triple quadrupole mass analyzer.
The ACQUITY UPLC® BEH C18 column (2.1 mm × 50 mm, 1.7 μm, Waters, United States) was used for separation and was maintained at 40°C. The mobile phase consisted of 0.1% formic acid in water (A) and 0.1% formic acid–acetonitrile (B) for PK study and 0.2% formic acid in water (A) and 0.2% formic acid–acetonitrile (B) for tissue distribution study. The mobile phase was eluted as a gradient, as follows: 0–0.5 min, 10% B; 0.5–3.0 min, 15% B; 3.0–3.2 min, 25% B; 3.2–4.0 min, 30% B; 4.0–4.5 min, 32% B; 4.5–6.0 min, 90% B; and 6.0 min, 10% B. The flow rate was set at 0.35 mL/min and the injection volume was 2 μL for the PK study and 1 μL for the tissue distribution study.
The four active components of CA were quantified using multiple reaction monitoring under negative ion mode. The following m/z transitions were chosen for quantification: baishouwu benzophenone 301.00→283.00, deacylmetaplexigenin 379.15→361.20, qingyangshengenin 499.20→137.00, syringic acid 197.20→181.95, and puerarin (internal standard, IS) 415.10→267.05. The collision energy was 15, 15, 35, 15, and 35 V, respectively ([Sun et al., 2022]). ESI mode was operated under the following conditions: capillary voltage, 1 kV; desolvation gas (N2), 1000 L/h; collision gas (Ar2), 150 L/h; desolvation temperature, 400°C; and source temperature, 120°C.
as §1
SD rats were randomly divided into normal and FD groups (n = 30 each) and orally administered 10 mL/kg of CA extract solution. The rats were sacrificed at 10, 30 min, 1, 2, and 4 h after administration (6 rats per time point). Subsequently, their heart, liver, spleen, lung, kidney, brain, small intestine, and stomach were removed. The tissue samples were then washed in saline solution and wiped with filter paper. Subsequently, all tissues were stored at −80°C until analysis.

[5] = high QC (nominal 1666.00 / 3172.53 / 569.17 / 206.21 ng·mL^-1)
[6] = low QC (nominal 52.06 / 49.57 / 8.89 / 1.61 ng·mL^-1)
[7] = medium QC (nominal 208.25 / 396.57 / 71.13 / 25.78 ng·mL^-1)
[8] = Brain homogenate, highest QC (ng·mL^-1): Baishouwu benzophenone 131.10, Syringic acid 320.04, Qingyangshengenin 62.12, Deacylmetaplexigenin 677.19
[9] = Brain homogenate, lowest QC (ng·mL^-1): Baishouwu benzophenone 3.34, Syringic acid 8.18, Qingyangshengenin 1.58, Deacylmetaplexigenin 17.26
[10] = Brain homogenate, middle QC (ng·mL^-1): Baishouwu benzophenone 20.88, Syringic acid 51.14, Qingyangshengenin 9.90, Deacylmetaplexigenin 107.87
[11] = Heart homogenate, highest QC (ng·mL^-1): Baishouwu benzophenone 111.56, Syringic acid 340.93, Qingyangshengenin 350.76, Deacylmetaplexigenin 1522.88
[12] = Heart homogenate, lowest QC (ng·mL^-1): Baishouwu benzophenone 2.66, Syringic acid 8.11, Qingyangshengenin 8.35, Deacylmetaplexigenin 36.24
[13] = Heart homogenate, middle QC (ng·mL^-1): Baishouwu benzophenone 18.96, Syringic acid 57.96, Qingyangshengenin 59.63, Deacylmetaplexigenin 258.89
[14] = Kidney homogenate, highest QC (ng·mL^-1): Baishouwu benzophenone 768.40, Syringic acid 1230.44, Qingyangshengenin 844.98, Deacylmetaplexigenin 2249.71
[15] = Kidney homogenate, lowest QC (ng·mL^-1): Baishouwu benzophenone 9.84, Syringic acid 15.75, Qingyangshengenin 10.82, Deacylmetaplexigenin 28.80
[16] = Kidney homogenate, middle QC (ng·mL^-1): Baishouwu benzophenone 81.96, Syringic acid 131.25, Qingyangshengenin 90.13, Deacylmetaplexigenin 239.97
[17] = Liver homogenate, highest QC (ng·mL^-1): Baishouwu benzophenone 313.75, Syringic acid 268.07, Qingyangshengenin 4484.13, Deacylmetaplexigenin 3093.35
[18] = Liver homogenate, lowest QC (ng·mL^-1): Baishouwu benzophenone 1.77, Syringic acid 22.34, Qingyangshengenin 25.26, Deacylmetaplexigenin 16.38
[19] = Lung homogenate, highest QC (ng·mL^-1): Baishouwu benzophenone 630.29, Syringic acid 662.80, Qingyangshengenin 385.86, Deacylmetaplexigenin 1513.71
[20] = Lung homogenate, lowest QC (ng·mL^-1): Baishouwu benzophenone 17.66, Syringic acid 18.57, Qingyangshengenin 10.81, Deacylmetaplexigenin 42.42
[21] = Lung homogenate, middle QC (ng·mL^-1): Baishouwu benzophenone 105.98, Syringic acid 111.44, Qingyangshengenin 64.88, Deacylmetaplexigenin 254.52
[22] = Small intestine homogenate, highest QC (ng·mL^-1): Baishouwu benzophenone 39.22, Syringic acid 773.28, Qingyangshengenin 1726.39, Deacylmetaplexigenin 1206.41
[23] = Small intestine homogenate, lowest QC (ng·mL^-1): Baishouwu benzophenone 0.46, Syringic acid 9.31, Qingyangshengenin 20.77, Deacylmetaplexigenin 14.52
[24] = Small intestine homogenate, middle QC (ng·mL^-1): Baishouwu benzophenone 4.97, Syringic acid 97.95, Qingyangshengenin 218.68, Deacylmetaplexigenin 152.81
[25] = Spleen homogenate, highest QC (ng·mL^-1): Baishouwu benzophenone 658.88, Syringic acid 752.66, Qingyangshengenin 418.52, Deacylmetaplexigenin 1979.74
[26] = Spleen homogenate, lowest QC (ng·mL^-1): Baishouwu benzophenone 10.98, Syringic acid 12.54, Qingyangshengenin 6.98, Deacylmetaplexigenin 33.00
[27] = Spleen homogenate, middle QC (ng·mL^-1): Baishouwu benzophenone 87.85, Syringic acid 100.35, Qingyangshengenin 55.80, Deacylmetaplexigenin 263.97
[28] = Stomach homogenate, highest QC (ng·mL^-1): Baishouwu benzophenone 47.06, Syringic acid 257.76, Qingyangshengenin 1285.45, Deacylmetaplexigenin 1665.65
[29] = Stomach homogenate, lowest QC (ng·mL^-1): Baishouwu benzophenone 0.63, Syringic acid 3.44, Qingyangshengenin 17.14, Deacylmetaplexigenin 22.21
[30] = Stomach homogenate, middle QC (ng·mL^-1): Baishouwu benzophenone 6.28, Syringic acid 34.37, Qingyangshengenin 171.39, Deacylmetaplexigenin 222.09

Measured concentration, 4°C for 24 h [1, 5]: 1594.23 ± 107.31 ng/mL
Measured concentration, Room temperature for 24 h [1, 5]: 1664.66 ± 169.47 ng/mL
Measured concentration, Three freeze-thaw cycles [1, 5]: 1684.19 ± 146.38 ng/mL
Measured concentration, 4°C for 24 h [1, 6]: 55.65 ± 4.01 ng/mL
Measured concentration, Three freeze-thaw cycles [1, 6]: 56.07 ± 5.75 ng/mL
Measured concentration, Room temperature for 24 h ([1]; low QC (nominal 52.06 / 49.57 / 8.89 / 1.61 ng·mL^-1 for baishouwu benzophenone / deacylmetaplexigenin / qingyangshengenin / syringic acid)): 55.67 ± 5.93 ng/mL
Measured concentration, 4°C for 24 h [1, 7]: 221.19 ± 11.60 ng/mL
Measured concentration, Room temperature for 24 h [1, 7]: 222.20 ± 17.55 ng/mL
Measured concentration, Three freeze-thaw cycles [1, 7]: 221.08 ± 17.98 ng/mL
AUC(0-inf) ([2]; FD group rats): 11100 ng·h/mL
AUC(0-t) ([2]; FD group rats): 9820 ± 1300 ng·h/mL
CL/F ([2]; FD group rats): 7.5 mL/min/kg
Cmax ([2]; FD group rats): 5220 ± 440 ng/mL
half-life ([2]; FD group rats): 11 ± 1.85 h
Tmax ([2]; FD group rats): 0.31 ± 0.06 h
Vd/F ([2]; FD group rats): 7.08 ± 1.07 L/kg
AUC(0-inf) ([2]; Normal group rats): 13800 ng·h/mL
AUC(0-t) ([2]; Normal group rats): 12800 ng·h/mL
CL/F ([2]; Normal group rats): 6 mL/min/kg
Cmax ([2]; Normal group rats): 6000 ± 592 ng/mL
half-life ([2]; Normal group rats): 9.14 ± 2.41 h
Tmax ([2]; Normal group rats): 0.26 ± 0.03 h
Vd/F ([2]; Normal group rats): 4.67 ± 0.88 L/kg
Auto-sampler for 6 h Measured concentration [3, 8]: 120.63 ± 2.55 ng/mL
Three freeze-thaw cycles Measured concentration [3, 8]: 123.76 ± 3.01 ng/mL
Auto-sampler for 6 h Measured concentration [3, 9]: 3.08 ± 0.01 ng/mL
Three freeze-thaw cycles Measured concentration [3, 9]: 3.02 ± 0.04 ng/mL
Auto-sampler for 6 h Measured concentration [3, 10]: 19.76 ± 0.44 ng/mL
Three freeze-thaw cycles Measured concentration [3, 10]: 20.10 ± 0.34 ng/mL
Auto-sampler for 6 h Measured concentration [3, 11]: 117.44 ± 1.18 ng/mL
Three freeze-thaw cycles Measured concentration [3, 11]: 118.10 ± 1.89 ng/mL
Auto-sampler for 6 h Measured concentration [3, 12]: 2.59 ± 0.05 ng/mL
Three freeze-thaw cycles Measured concentration [3, 12]: 2.47 ± 0.03 ng/mL
Auto-sampler for 6 h Measured concentration [3, 13]: 19.82 ± 0.45 ng/mL
Three freeze-thaw cycles Measured concentration [3, 13]: 19.77 ± 0.41 ng/mL
Auto-sampler for 6 h Measured concentration [3, 14]: 750.99 ± 14.44 ng/mL
Three freeze-thaw cycles Measured concentration [3, 14]: 748.36 ± 12.9 ng/mL
Auto-sampler for 6 h Measured concentration [3, 15]: 9.74 ± 0.44 ng/mL
Three freeze-thaw cycles Measured concentration [3, 15]: 9.58 ± 0.63 ng/mL
Auto-sampler for 6 h Measured concentration [3, 16]: 88.88 ± 5.31 ng/mL
Three freeze-thaw cycles Measured concentration [3, 16]: 87.75 ± 5.24 ng/mL
Auto-sampler for 6 h Measured concentration [3, 17]: 305.22 ± 17.58 ng/mL
Three freeze-thaw cycles Measured concentration [3, 17]: 303.56 ± 16.64 ng/mL
Auto-sampler for 6 h Measured concentration [3, 18]: 1.80 ± 0.19 ng/mL
Three freeze-thaw cycles Measured concentration [3, 18]: 1.86 ± 0.05 ng/mL
Three freeze-thaw cycles Measured concentration ([3]; Liver homogenate, middle QC (ng·mL^-1): Baishouwu benzophenone 27.19, Syringic acid 89.35, Qingyangshengenin 386.62, Deacylmetaplexigenin 268.09): 26.80 ± 1.81 ng/mL
Auto-sampler for 6 h Measured concentration [3, 19]: 717.67 ± 14.53 ng/mL
Three freeze-thaw cycles Measured concentration [3, 19]: 716.31 ± 12.93 ng/mL
Auto-sampler for 6 h Measured concentration [3, 20]: 17.71 ± 1.84 ng/mL
Three freeze-thaw cycles Measured concentration [3, 20]: 17.55 ± 2.16 ng/mL
Auto-sampler for 6 h Measured concentration [3, 21]: 107.37 ± 5.82 ng/mL
Three freeze-thaw cycles Measured concentration [3, 21]: 105.63 ± 6.43 ng/mL
Auto-sampler for 6 h Measured concentration [3, 22]: 38.84 ± 3.48 ng/mL
Three freeze-thaw cycles Measured concentration [3, 22]: 38.30 ± 3.03 ng/mL
Auto-sampler for 6 h Measured concentration [3, 23]: 0.48 ± 0.05 ng/mL
Three freeze-thaw cycles Measured concentration [3, 23]: 0.46 ± 0.04 ng/mL
Auto-sampler for 6 h Measured concentration [3, 24]: 4.71 ± 0.14 ng/mL
Three freeze-thaw cycles Measured concentration [3, 24]: 4.66 ± 0.10 ng/mL
Auto-sampler for 6 h Measured concentration [3, 25]: 684.55 ± 31.57 ng/mL
Three freeze-thaw cycles Measured concentration [3, 25]: 677.57 ± 32.24 ng/mL
Auto-sampler for 6 h Measured concentration [3, 26]: 11.24 ± 0.63 ng/mL
Three freeze-thaw cycles Measured concentration [3, 26]: 11.40 ± 0.76 ng/mL
Auto-sampler for 6 h Measured concentration [3, 27]: 80.95 ± 2.54 ng/mL
Three freeze-thaw cycles Measured concentration [3, 27]: 79.35 ± 1.81 ng/mL
Auto-sampler for 6 h Measured concentration [3, 28]: 43.94 ± 1.72 ng/mL
Three freeze-thaw cycles Measured concentration [3, 28]: 44.41 ± 1.38 ng/mL
Auto-sampler for 6 h Measured concentration [3, 29]: 0.57 ± 0.05 ng/mL
Three freeze-thaw cycles Measured concentration [3, 29]: 0.58 ± 0.07 ng/mL
Auto-sampler for 6 h Measured concentration [3, 30]: 6.13 ± 0.11 ng/mL
Three freeze-thaw cycles Measured concentration [3, 30]: 6.22 ± 0.15 ng/mL
tissue with the highest concentration ([4]; FD group): lungs
crossing of the blood-brain barrier ([4]; distribution found in rat brain): could cross the blood-brain barrier
time after oral administration at which almost completely metabolized in tissues ([4]; rat tissues): 4 h
time of peak in most of organ tissues ([4]; rat tissues): 0.17 to 0.5 h
Compound: CC(=O)c1ccc(O)c(C(=O)c2c(O)ccc(O)c2C)c1O [Baishouwu benzophenone]
